For this test, the target named is Kv1.3 voltage-gated K+ channel (Homo sapiens, UniProt P22001). The test is classed as cell-based.

These results are taken from paper PMC7781520 (Channels, 2020).

Broadly, the IC50 is the concentration needed to halve the response being measured. A higher IC50 goes with lower potency.

Kv1.3 voltage-gated K+ channel, sequence (P22001 whole entry): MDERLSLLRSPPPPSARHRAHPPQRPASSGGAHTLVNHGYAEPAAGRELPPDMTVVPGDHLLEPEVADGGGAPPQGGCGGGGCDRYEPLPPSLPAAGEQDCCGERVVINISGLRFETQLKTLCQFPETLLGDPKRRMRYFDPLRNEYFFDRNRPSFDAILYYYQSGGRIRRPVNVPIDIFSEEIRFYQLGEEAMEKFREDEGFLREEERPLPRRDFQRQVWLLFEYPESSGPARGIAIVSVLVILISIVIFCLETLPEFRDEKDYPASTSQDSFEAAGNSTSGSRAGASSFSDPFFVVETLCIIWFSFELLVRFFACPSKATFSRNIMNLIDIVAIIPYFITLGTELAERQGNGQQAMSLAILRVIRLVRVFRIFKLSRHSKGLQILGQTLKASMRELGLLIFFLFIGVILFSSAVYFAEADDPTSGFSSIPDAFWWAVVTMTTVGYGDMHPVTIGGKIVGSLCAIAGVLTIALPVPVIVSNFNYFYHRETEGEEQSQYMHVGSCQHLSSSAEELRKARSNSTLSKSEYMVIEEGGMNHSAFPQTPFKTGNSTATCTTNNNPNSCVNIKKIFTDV

On to `CC[N+](CC)(CC)CC` [TEA+], for which it took 10.3 ± 0.71 mM to reach half-maximal inhibition (IC50).
